Experimental data published in patent publication EP0497921B1, “METHOD FOR INHIBITING ENZYMATIC SYNTHESIS OF NUCLEIC ACIDS USING ISOPSORALENS” (ISAACS, Stephen T., priority 1989, dated 1991).

What was measured:
calf thymus DNA = assay: Binding of photoproduct to nucleic acid in the dark (DNA-associated tritium counts); conditions: no device, no irradiation
Protocol: The nucleic acid binding properties of photoproduct were investigated with calf thymus DNA. 200 µg/ml of ^3H-AMDMIP (1 x 10^5 CPM/ml) in Taq buffer was irradiated at room temperature with either the CE-III device or the PTI device. This irradiation was performed for 15 minutes in the absence of nucleic acid. Following the irradiations, 200 µl of the irradiated solution was mixed with 200 µl of 1000 µg/ml DNA solution in Taq buffer. Several identical samples were prepared in this manner. one set of samples was allowed to react with the DNA for 2 hours at room temperature. The other set of samples was subjected to 30 cycles of heating and cooling by placing the samples in a thermal cycler [Perkin-Elmer Cetus DNA Thermal Cycler (Part No. N8010150); each cycle involved 93°C for 30 seconds, 55°C for 30 seconds and 72°C for 1 minute]. When the DNA reactions were complete, all samples were analyzed for DNA-associated tritium counts (CPM) by following the flow chart outlined in FIgure 17.
For calculation purposes, these adducts are reported as if they represented monomers of AMDMIP. Regardless of the accuracy of this approximation, the process of irradiating ^3H-AMDMIP clearly results in a tritiated product which associates (i.e. binds) with DNA in the absence of subsequent activating wavelengths of electromagnetic radiation. […]

115-mer = assay: Crosslinkable Oligonucleotide Probe Analysis (COP) of sterilized PCR product; type: biochemical, HIV
From the text: Because of this, these isopsoralen-modified single strands should remain detectable by hybridization procedures. […] Preparation of Samples: The HIV 115-mer system with primers SK-38/SK-39 was used for the experiment (see Figure 36, "HIV Oligonucleotide System"). Two types of starting template were used: previously amplified 115-mer or genomic DNA, isolated from an individual known to be infected with HIV (MACS sample). For previously amplified 115-mer between 10^5 and 10^6 copies were used for starting template. For the genomic (MACS) sample, approximately 1 µg (3 x 10^5 copies) of genomic DNA were used. Two PCR samples were prepared for each type of template then amplification was carried out for either 20 or 30 cycles. One of the two PCR samples contained AMDMIP at 200 µg/ml while the other was AMDMIP free. Following amplification, the AMDMIP containing samples were divided and half were irradiated. Analysis (OH or COP) was then done on the three samples from each set (AMDMIP free, AMDMIP unirradiated, and AMDMIP irradiated) for each cycle number. The AMDMIP free samples served as control, the AMDMIP unirradiated sampes adressed the effect of non-covalently bound AMDMIP on detection, and AMDMIP irradiated samples addressed the effect of covalently bound AMDMIP on detection.
COP and OH assays were performed a follows. 10 µl of the PCR reaction mixture was added to 3.3 µl of "probe mix" [5'-labelled SK-19 (normal or monoadducted) at 10^-8 M containing EDTA and an appropriate salt mixture], overlaid with 30-40 µl of light mineral oil, then heated to 95-100°C for 5 minutes. For COP, the hybridization mixture as placed in the PTI device at 56°C and irradiated for 15 minutes. Following this, loading dyes (containing urea or formamide) were added, the sample heated to 95-100°C for 5 minutes, quick chilled on wet ice, then loaded on a denaturing PAGE gel followed by electrophoresis under denaturing conditions. For OH reactions, the hybridization mixture was incubated at 56°C for 30 minutes, loading dyes added, and aliquots loaded directly into a native PAGE gel followed by electrophoresis under native conditions. 1. Samples 1-6 contain previously amplified 115-mer that was re-amplified either 20 (samples 1,3,5) or 30 (Samples 2,4,6) cycles then detected by COP. Samples 1 & 2 are controls (without AMDMIP); samples 3 and 4 are (with AMDMIP and with light) sterilized samples; samples 5 & 6 are (with AMDMIP but without light) controls. The bands corresponding to amplified 115-mer crosslinked to labelled 41-mer probe (SK-19 MA) are the upper bands in Figure 46. Samples 11-16 are the same series except the MACS sample was used as template.

[1] = tested on: Molt-4 human genomic DNA target; assay: Sterilization of genomic target before PCR (174 bp beta globin product); type: biochemical
Protocol: Four samples containing 1 µg of Molt-4 human genomic DNA target were prepared for PCR with primers KM 29 (5'-[…]) and HRI-12 (5'-[…]). These primers give a 174 bp product within the human beta globin gene. All four samples contained AMDMIP at 100 µg/ml, and were irradiated for 0, 5, 10 or 15 minutes prior to PCR amplification. […] Amplification were carried out in 1 x Taq buffer (50 mM KCl, 10 mM Tris pH 8.5, 2.5 mM MgCl2, 200 µg/ml gelatin), 175 µM each dNTP, 20 µM primer with 2.5 units of Taq polymerase and 100 µg/ml AMDMIP present during amplification. PCR was carried out for 30 cycles; one cycle = 30 sec at 94°C (denaturing), 30 sec at 55°C (primer annealing), and 60 sec at 72°C (extension). α-^32P-dCTP was used as an internal label. After amplification, the samples were analyzed for product by PAGE followed by autoradiaography.

human placental DNA = assay: PCR amplification with unirradiated AMDMIP and DMSO co-solvent; type: biochemical; conditions: for CPM of product bands: AMDMIP 200 µg/ml unirradiated
Protocol: In this example, the effect of DMSO on PCR amplification in the presence of high concentrations of sterilizing compound (AMDMIP) was investigated. Samples were prepared for PCR which contained 1 µg of human placental DNA either with or without (unirradiated) AMDMIP (200 µg/ml). The samples were amplified 30 cycles under standard PCR conditions in the presence of 0%, 1%, 5% or 10% DMSO. The reaction mix contained α-^32P-dCTP. Following amplification, the samples were analyzed by PAGE (data not shown).

[2] = Sample 4: previously amplified 115-mer, 30 cycles, with AMDMIP and with light
[3] = Sample 5: previously amplified 115-mer, 20 cycles, with AMDMIP but without light
[4] = Sample 6: previously amplified 115-mer, 30 cycles, with AMDMIP but without light
[5] = Sample 13: MACS genomic template, 20 cycles, with AMDMIP and with light
[6] = Sample 14: MACS genomic template, 30 cycles, with AMDMIP and with light
[7] = Sample 15: MACS genomic template, 20 cycles, with AMDMIP but without light
[8] = Sample 16: MACS genomic template, 30 cycles, with AMDMIP but without light

4'-Aminomethyl-4,5'-dimethylisopsoralen [AMDMIP]
ADDUCTS PER (calf thymus DNA; dark reaction Room Temp. (2 hours)): 1.1
ADDUCTS PER (calf thymus DNA; dark reaction Thermally Cycled (30 cycles)): 0.9
CPM (115-mer; Sample 3: previously amplified 115-mer, 20 cycles, with AMDMIP (200 µg/ml) and with light): 1944 CPM
CPM (%) relative to sample without AMDMIP (115-mer; Sample 3: previously amplified 115-mer, 20 cycles, with AMDMIP and with light): 62%
CPM (115-mer; [2]): 36452 CPM
CPM (%) relative to sample without AMDMIP (115-mer; [2]): 83%
CPM (115-mer; [3]): 4480 CPM
CPM (%) relative to sample without AMDMIP (115-mer; [3]): 144%
CPM (115-mer; [4]): 39596 CPM
CPM (%) relative to sample without AMDMIP (115-mer; [4]): 90%
CPM (115-mer; [5]): 460 CPM
CPM (%) relative to sample without AMDMIP (115-mer; [5]): 52%
CPM (115-mer; [6]): 41777 CPM
CPM (%) relative to sample without AMDMIP (115-mer; [6]): 78%
CPM (115-mer; [7]): 464 CPM
CPM (%) relative to sample without AMDMIP (115-mer; [7]): 53%
CPM (115-mer; [8]): 35176 CPM
CPM (%) relative to sample without AMDMIP (115-mer; [8]): 66%
impact of unirradiated AMDMIP on amplification ([1]; 100 µg/ml, data not shown): no significant impact on amplification
amplification after irradiation in the presence of AMDMIP ([1]; AMDMIP 100 µg/ml, irradiated 0, 5, 10 or 15 minutes prior to PCR, 30 cycles): no amplification of the sterilized genomic target
amplification with unirradiated AMDMIP (human placental DNA; 200 µg/ml, no DMSO, 30 cycles): virtually no detectable amplification product
CPM of product bands (human placental DNA; 0% DMSO): 2500 CPM
CPM of product bands (human placental DNA; 1% DMSO): 2800 CPM
CPM of product bands (human placental DNA; 5% DMSO): 86,000 CPM
CPM of product bands (human placental DNA; 10% DMSO): 102,000 CPM
